Read-outs that look alike come from different tables or passages of the source. Marks after values point to notes of the source that are not given here.
Columns and labels:
C2 mastocytoma cells = test: Alamar Blue cell proliferation assay, C2; assay type: cell-based, canine; settings: Canis lupus familiaris, 72 h, read-out: Combination IC50 (chemotherapeutic agent with fixed masitinib)
[1] = tested on: CaCo-2 colorectal cancer cells; test: WST-1 proliferation/survival assay, CaCo-2; assay type: cell-based; settings: Homo sapiens, read-out: Gemcitabine IC50
Procedure: (§1) Gemcitabine (Gemzar, Lilly France) was obtained as a powder and dissolved in sterile 0.9% NaCl solution and stored as aliquots at −80° C. Fresh dilutions were prepared fcr each experiment. Cell lines: Colon and prostate cancer cell lines (Dr. Juan Iovanna, INSERM U624, Marseille, France), breast and ovarian cancer cell lines (Dr. Patrice Dubreuil, UMR 599 INSERM, Marseille, France), and lung cancer cell lines (Pr. Christian Auclair, UMR 8113 CNRS) were cultured as monolayers in RPMI 1640 medium containing L-glutamine supplemented with 100 U/ml penicillin and 100 μg/ml streptomycin, and 10% v/v heat-inactivated fetal calf serum (AbCys Lot S02823S1800) under standard culture conditions (5% CO2, 95% air in humidified chamber at 37° C.). In proliferation assays, all cells were grown in medium containing 1% FCS.
(§2) Treatment was started with the addition of the respective drug. […] After 72 hours WST-1 reagent was added and incubated with the cells for 4 hours before absorbance measurement at 450 nm in an EL800 Universal Microplate Reader (Bio-Tek Instruments Inc.). Media alone was used as a blank and proliferation in the absence of compounds served as positive control (DMSO control). The new IC50 was scored and the results are representative of 3-4 experiments.

[2] = tested on: Abrams osteosarcoma cells; test: Alamar Blue cell proliferation assay, Abrams; assay type: cell-based, canine; settings: Canis lupus familiaris, 72 h, read-out: Combination IC50 (chemotherapeutic agent with fixed masitinib)
[3] = tested on: Panc-1 pancreatic cancer cells; test: WST-1 proliferation assay, Panc-1; assay type: cell-based, human; settings: Homo sapiens
Procedure: (§3) Cancer cell lines: Pancreatic cancer cells lines (Mia Paca-2, Panc-1, BxPC-3 and Capan-2) were obtained from Dr. Juan Iovanna (Inserm, France). Cells were maintained in RPMI (BxPC-3, Capan-2) or DMEM (Mia Paca-2, Panc-1) medium containing glutamax-1 (Lonza), supplemented with 100 U/ml penicillin/100 μg/ml streptomycin, and 10% fetal calf serum (FCS) (AbCys, Lot S02823S1800). Expression of tyrosine kinases was determined by RT-PCR using Hot Star Taq (Qiagen GmbH, Hilden, Germany) in a 2720 Thermal Cycler (Applied Biosystems).
as §2, with “control. Results” for “control (DMSO control). The new IC50 was scored and the results”, “three/four” for “3-4”

H1650 NSCLC cells = test: WST-1 proliferation/survival assay, H1650; assay type: cell-based; settings: Homo sapiens, NCI-H1650, read-out: Gemcitabine IC50
Procedure: as §1, §2

[4] = tested on: CMT12 breast carcinoma cells; test: Alamar Blue cell proliferation assay, CMT12; assay type: cell-based, canine; settings: Canis lupus familiaris, Breast carcinoma cell, 72 h, read-out: Combination IC50 (chemotherapeutic agent with fixed masitinib)
[5] = tested on: DU145 prostate cancer cells; test: WST-1 proliferation/survival assay, DU145; assay type: cell-based; settings: Homo sapiens, DU-145, read-out: Gemcitabine IC50
Procedure: as §1, §2

[6] = tested on: CMT27 breast carcinoma cells; test: Alamar Blue cell proliferation assay, CMT27; assay type: cell-based, canine; settings: Canis lupus familiaris, Breast carcinoma cell, 72 h, read-out: Combination IC50 (chemotherapeutic agent with fixed masitinib)
[7] = tested on: Mia Paca-2 pancreatic tumors; test: Nog-SCID mouse model of human pancreatic cancer; assay type: in vivo, Nog-SCID mice; settings: day 56, 28 days of treatment; control 1023
[8] = tested on: BT474 breast cancer cells; test: WST-1 proliferation/survival assay, BT474; assay type: cell-based; settings: Homo sapiens, BT-474, read-out: Gemcitabine IC50
Procedure: as §1, §2

H1299 NSCLC cells = test: WST-1 proliferation/survival assay, H1299; assay type: cell-based; settings: Homo sapiens, NCI-H1299, read-out: Gemcitabine IC50
Procedure: as §1, §2

[9] = tested on: LnCaP prostate cancer cells; test: WST-1 proliferation/survival assay, LnCaP; assay type: cell-based; settings: Homo sapiens, read-out: Gemcitabine IC50
Procedure: as §1, §2

[10] = tested on: Capan-2 pancreatic cancer cells; test: WST-1 proliferation assay, Capan-2; assay type: cell-based, human; settings: Homo sapiens
Procedure: as §3
as §2, with “control. Results” for “control (DMSO control). The new IC50 was scored and the results”, “three/four” for “3-4”

[11] = tested on: MDAMB 134 breast cancer cells; test: WST-1 proliferation/survival assay, MDAMB 134; assay type: cell-based; settings: Homo sapiens, read-out: Gemcitabine IC50
Procedure: as §1, §2

A549 NSCLC cells = test: WST-1 proliferation/survival assay, A549; assay type: cell-based; settings: Homo sapiens, read-out: Gemcitabine IC50
Procedure: as §1, §2

BT20 breast cancer cells = test: WST-1 proliferation/survival assay, BT20; assay type: cell-based; settings: Homo sapiens, BT-20, read-out: Gemcitabine IC50
Procedure: as §1, §2

[12] = tested on: Mia Paca-2 pancreatic cancer cells; test: WST-1 proliferation assay, Mia Paca-2; assay type: cell-based, human; settings: Homo sapiens
[13] = tested on: BxPC-3 pancreatic cancer cells; test: WST-1 proliferation assay, BxPC-3; assay type: cell-based, human
Procedure: as §3
as §2, with “control. Results” for “control (DMSO control). The new IC50 was scored and the results”, “three/four” for “3-4”

[14] = tested on: HRT118 colorectal cancer cells; test: WST-1 proliferation/survival assay, HRT118; assay type: cell-based; settings: Homo sapiens, read-out: Gemcitabine IC50
Procedure: as §1, §2

D17 osteosarcoma cells = test: Alamar Blue cell proliferation assay, D17; assay type: cell-based, canine; settings: Canis lupus familiaris, 72 h, read-out: Combination IC50 (chemotherapeutic agent with fixed masitinib)
[15] = tested on: MDAMB 231 breast cancer cells; test: WST-1 proliferation/survival assay, MDAMB 231; assay type: cell-based; settings: Homo sapiens, MDA-MB-231, read-out: Gemcitabine IC50
Procedure: as §1, §2

[16] = tested on: OVCAR3 ovarian cancer cells; test: WST-1 proliferation/survival assay, OVCAR3; assay type: cell-based; settings: Homo sapiens, OVCAR-3, read-out: Gemcitabine IC50
Procedure: as §1, §2

Q: Which results are given for Nc1ccn([C@@H]2O[C@H](CO)[C@@H](O)C2(F)F)c(=O)n1 [Gemcitabine, 4-amino-1-(2-deoxy-2,2-difluoro-β-D-erythro-pentofuranosyl)pyrimidin-2(1H)-on 2′,2′-difluoro-2′-deoxycytidine]?
A: IC50 (C2 mastocytoma cells): > 100 µM; IC50 [1]: > 100 µM; IC50 [2]: 1 µM; IC50 ([3]; PANC-1, read-out: IC50 of gemcitabine plus 5 μM masitinib): 8 µM; IC50 ([3]; PANC-1, read-out: IC50 of gemcitabine plus 10 μM masitinib): 1 µM; IC50 ([3]; Panc-1, 72 hours, 1% FCS, read-out: IC50, single agent): > 10 µM; IC50 ([3]; Panc-1, read-out: IC50, single agent (resistance)): > 2500 µM; IC50 (H1650 NSCLC cells): 5 µM; IC50 [4]: 10.8 µM; IC50 [5]: 100 µM; IC50 [6]: 1.3 µM; Tumor Volume, Median [7]: 662* mm^3; IC50 [8]: 100 µM; IC50 (H1299 NSCLC cells): 100 µM; IC50 [9]: 25 to 100 µM; IC50 ([10]; Capan-2, 72 h, Capan-2, 72 hours, 1% FCS, read-out: IC50, single agent): 2 to 20 µM; IC50 ([10]; Capan-2, read-out: IC50 of gemcitabine plus 5 μM masitinib, Capan-2, masitinib overnight before gemcitabine): 2 µM; IC50 [11]: 100 µM; IC50 (A549 NSCLC cells): 100 µM; IC50 (BT20 breast cancer cells): 50 µM; IC50 ([12]; MIA PaCa-2, read-out: IC50 of gemcitabine plus 5 μM masitinib): 1.5 µM; IC50 ([12]; MIA PaCa-2, read-out: IC50 of gemcitabine plus 10 μM masitinib): 0.025 µM; IC50 ([12]; Mia Paca-2, 72 hours, 1% FCS, read-out: IC50, single agent): > 10 µM; IC50 ([12]; Mia Paca-2, read-out: IC50, single agent (resistance)): > 2500 µM; IC50 ([13]; BxPC-3, 72 hours, 1% FCS, read-out: IC50, single agent): 2 to 20 µM; IC50 ([13]; Homo sapiens, BXPC-3, read-out: IC50 of gemcitabine plus 5 μM masitinib, BxPC-3, masitinib overnight before gemcitabine): 10 µM; IC50 ([13]; Homo sapiens, BXPC-3, read-out: IC50 of gemcitabine plus 10 μM masitinib, BxPC-3, masitinib overnight before gemcitabine): 10 µM; IC50 [14]: > 100 µM; IC50 (D17 osteosarcoma cells): 1.3 µM; IC50 [15]: 100 µM; IC50 [16]: 50 µM

— patent publication US20150290235A1, “USE OF SMALL MOLECULE INHIBITORS/ACTIVATORS IN COMBINATION WITH (DEOXY)NUCLEOSIDE OR (DEOXY)NUCLEOTIDE ANALOGS FOR TREATMENT OF CANCER AND HEMATOLOGICAL MALIGNANCIES OR VIRAL INFECTIONS” (AB SCIENCE, priority 2012, published 2015)
